Experimental data reported in patent publication US20120046246A1, “METHODS FOR TREATING OSTEOCLAST-RELATED DISEASE, COMPOUNDS AND COMPOSITIONS THEREOF” (University of Florida Research Foundation, priority 2008, published 2012).

tested on: mature osteoclasts on bone slices; experiment: ruffled membrane formation / V-ATPase trafficking in mature osteoclasts on bone slices (anti-E subunit antibody); format: cell-based; details: concentration not given
Procedure: FIG. 7 depicts that enoxacin (10 μM) blocks ruffled membrane formation. Mature osteoclasts on bone slices were treated with enoxacin or vehicle control for 3 days, then fixed and labeled with an anti-E subunit antibody. […] Arrows point to representative osteoclasts; The present inventors also tested the effects of enoxacin on osteoclasts that were already mature and loaded onto bone slices. In this experiment, mature osteoclasts on bone slices were treated with enoxacin or vehicle control for 3 days, then fixed and labeled with an anti-E subunit antibody. Control osteoclasts produced many ruffled membranes.

Row | ruffled membrane formation | Compound
1 | blocks | O=C(C[N+]12CN3CN(CN(C3)C1)C2)c1ccc(Cl)cc1.[I-] [Binhib 2, 3,5,7-triaza-1-azoniatricyclo[3.3.1.13,7]decane, 1-[2-(4-chlorophenyl)-2-oxoethyl]-iodide]

molecular target: T1, interaction between recombinantly-expressed B2 subunit and pure rabbit muscle F-actin (Homo sapiens, UniProt P21281); experiment: pelleting assay of B subunit binding to F-actin; details: not given
T1 construct: made in house
Procedure: Twenty-one small molecules are tested for their ability to block interaction between recombinantly-expressed B2 subunit and pure rabbit muscle F-actin.
Recombinant B subunit (1 μM) plus/minus F-actin (2 μM)) plus/minus 100 uM inhibitor compounds were incubated for 10 minutes in 20 mM Tris/HCl (pH 7.5), 100 mM NaCl, 1 mM MgCl2, 0.2 mM CaCl2, 0.5 mM ATP, 0.2 mM DTT, then subjected to ultracentrifugation at 180,000×g for 45 min. Supernatants and pellets were collected in SDS-PAGE sample buffer, separated by SDS-PAGE, stained with Coomassie Blue, and densitometry was performed using a Flurchem 8000 (Alpha Innotech, San Leandro Calif.).
The percent inhibition was determined by densitometry of SDS-PAGE gels. The raw densitometric number obtained of the recombinant B subunit band that was pelleted with F-actin, but with no compound present, represented 0% inhibition. The amount of the raw densitometric number of the amount of recombinant B subunit that pelleted with no actin present, but with compound, represented 100% inhibition. The amount of recombinant B subunit that pelleted with actin and the compound being tested was placed as a percentage assuming a linear response.

T1 sequence (P21281 whole entry): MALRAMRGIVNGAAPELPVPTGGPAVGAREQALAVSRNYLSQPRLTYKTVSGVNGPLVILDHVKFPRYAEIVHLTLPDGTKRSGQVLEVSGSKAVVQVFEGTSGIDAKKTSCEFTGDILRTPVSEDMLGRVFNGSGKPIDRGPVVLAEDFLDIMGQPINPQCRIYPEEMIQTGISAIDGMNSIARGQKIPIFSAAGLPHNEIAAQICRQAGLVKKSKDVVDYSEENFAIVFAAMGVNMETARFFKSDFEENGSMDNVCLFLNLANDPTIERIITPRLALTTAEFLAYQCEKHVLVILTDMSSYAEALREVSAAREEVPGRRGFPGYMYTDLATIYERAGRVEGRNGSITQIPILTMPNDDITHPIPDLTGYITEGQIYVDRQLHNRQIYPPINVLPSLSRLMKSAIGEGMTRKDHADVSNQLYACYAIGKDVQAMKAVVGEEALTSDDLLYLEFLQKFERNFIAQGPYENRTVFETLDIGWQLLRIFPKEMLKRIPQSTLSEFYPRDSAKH

Row | B subunit actin interactions in vitro | Compound | inhibition at 100 µM [%]
2 | inhibits | O=C(C[N+]12CN3CN(CN(C3)C1)C2)c1ccc(Cl)cc1.[I-] [Binhib 2, 3,5,7-triaza-1-azoniatricyclo[3.3.1.13,7]decane, 1-[2-(4-chlorophenyl)-2-oxoethyl]-iodide] | –
3 | – | CN1N(C)C12CCC1(C)C(CCC3C1CCC1(C)C3CCC1(C)O)C2 (stereo not shown) [Binhib 3, 1′,2′,10,13,17-pentamethylhexadecahydrospiro[cyclopenta[a]phenanthrene-3,3′-diaziridin]-17-ol] | 7

same assay, conditions: 100 uM inhibitor compound; recombinant B subunit 1 μM, F-actin 2 μM; densitometry of SDS-PAGE gels

Row | % inhibition [%] | Compound
4 | 1 | 2,4-diamino-5-(4-((2-aminoethyl)amino)-3-(hydroxy(oxido)amino)phenyl)-6-ethylpyrimidine [Binhib 33]
5 | 0 | 2-((4-methyl-1-piperazinyl)methyl)-15-indeno[1,2,3-de]quinazolin-1-ol [Binhib 15]
6 | 5 | Clc1cc(Cl)c(C[N+]23CN4CN(CN(C4)C2)C3)cc1Cl.[Cl-] [Binhib 1, {3,5,7-Triaza-1-azoniatricyclo[3.3.1.13,7]decane}{1-[(2,}4,5-trichlorophenyl)methyl]-, chloride]
7 | 3 | ON=C(C[N+]12CN3CN(CN(C3)C1)C2)c1ccc(I)cc1 [Binhib 10, 1-(4-iodophenyl)-2-(15,3,5,7-tetraazatricyclo[3.3.1.1˜3,7˜]dec-1-yl)ethanone oxime]
8 | 5 | CC(C)Cc1ccc(C[N+]23CN4CN(CN(C4)C2)C3)cc1 [Binhib 20, 1-(4-isobutylbenzyl)-15,3,5,7-tetraazatricyclo[3.3.1.1˜3,7˜]decane]
9 | 13 | O=C(C[N+]12CN3CN(CN(C3)C1)C2)c1ccc(Br)cc1 [Binhib 24, 1-(4-bromophenyl)-2-(15,3,5,7-tetraazatricyclo[3.3.1.1˜3,7˜]dec-1-yl)ethanone]
10 | 0 | O=C(C[N+]12CN3CN(CN(C3)C1)C2)c1ccc2ccccc2c1 [Binhib 36, 1-(2-naphthyl)-2-(15,3,5,7-tetraazatricyclo[3.3.1.1˜3,7˜]dec-1-yl)ethanone]
11 | 4 | COc1ccc(C(=O)C[N+]23CN4CN(CN(C4)C2)C3)cc1 [Binhib 41, 1-(4-methoxyphenyl)-2-(15,3,5,7-tetraazatricyclo[3.3.1.1˜3,7˜]dec-1-yl)ethanone]

Row | Compound | % inhibition [%]
12 | Brc1ccc(C[N+]23CN4CN(CN(C4)C2)C3)cc1.[Br-] [Binhib 9, 3-(5,7-Triaza-1-azoniatricyclo[3.3.1.13,7]decane) (1-[(4-bromophenyl)methyl])bromide] | 21
13 | BrC=C(Br)C[N+]12CN3CN(CN(C3)C1)C2 [Binhib 18, 1-(2,3-dibromo-2-propenyl)-15,3,5,7-tetraazatricyclo[3.3.1.1˜3,7˜]decane] | 2
14 | Cc1nc2ccccc2cc1C[N+]12CN3CN(CN(C3)C1)C2 [Binhib 30, 1-((2-methyl-3-quinolinyl)methyl)-15,3,5,7-tetraazatricyclo[3.3.1.1˜3,7˜]decane] | 4
15 | COC(=O)C1CC23CCCN4CCC5(c6cccc(OC)c6N(C=O)C15CC2)C43 (stereo not shown) [Binhib 35, methyl 1-formyl-17-methoxyaspidofractinine-3-carboxylate] | 4

same assay, conditions: 100 uM inhibitor compound; recombinant B subunit 1 μM, F-actin 2 μM; densitometry of SDS-PAGE gels; read-out: % inhibition

Row | inhibition at 100 µM [%] | Compound
16 | 65 | O=C(C[N+]12CN3CN(CN(C3)C1)C2)c1ccc(Cl)cc1.[I-] [Binhib 2, 3,5,7-triaza-1-azoniatricyclo[3.3.1.13,7]decane, 1-[2-(4-chlorophenyl)-2-oxoethyl]-iodide]
17 | 0 | CCOC(=O)C(Cc1c[nH]c2ccccc12)NCCN (stereo not shown) [Binhib 5, ethyl 2-((2-aminoethyl)amino)-3-(1H-indol-3-yl)propanoate]
18 | 0 | COc1cccc(CN2CCN(N)CC2)c1 [Binhib 17, 4-(3-methoxybenzyl)-1-piperazinamine]
19 | 2 | Cn1c(=O)c2nc(SSc3nc4c(=O)n(C)c(=O)n(C)c4[nH]3)[nH]c2n(C)c1=O [Binhib 31, 8,8′-disulfanediylbis(1,3-dimethyl-1H-purine-2,6(3H,9H)-dione)]
20 | 3 | S=C(S)NCCN1CCNCC1 [Binhib 38, 2-(1-piperazinyl)ethylcarbamodithioic acid]

Row | Compound | inhibition at 100 µM [%]
21 | C=C1C23C(CCCC2NC)CCC2(C)C4C(C(C)=O)C(O)CC4(C)CCC123 (stereo not shown) [Binhib 26, 1-(2-hydroxy-3a,12a-dimethyl-7-(methylamino)-6-methylenehexadecahydro-cyclopenta[a]cyclopropa[e]phenanthren-1-yl)ethanone] | 0

tested on: osteoclast formation in calcitriol-stimulated mouse marrow cultures; experiment: osteoclastogenesis stimulated by calcitriol in mouse marrow cultures; format: cell-based; details: concentration not given
Procedure: Enoxacin and Binhib 2 were then tested for their effects on osteoclastogenesis stimulated by calcitriol in mouse marrow cultures. The mixed cultures represent a model for the complex interactions that regulate bone resorption in vivo. […] Osteoclast and osteoblast-containing mouse bone marrow cultures are obtained as above described. 4-6-week-old Swiss-Webster mice (Harlan, Indianapolis, Ind.) are sacrificed by cervical dislocation. Femurs and tibias are dissected free of adherent tissue; the marrow is expelled by cutting both bone ends and flushing the marrow cavity with MEM D10 using a 25-gauge needle. The marrow cells are washed twice and plated in 6 well plates at a concentration of 1×10^6 nucleated cells/cm^2 in MEM D1 0 containing 10 nM calcitriol. Cultures are fed on the third and fifth day of culture by replacing half of the medium with fresh medium containing calcitriol. Cultures are treated with enoxacin at 10 μM or vehicle control on Day 1, and when the media is refreshed.

Row | Compound | osteoclast formation
22 | O=C(C[N+]12CN3CN(CN(C3)C1)C2)c1ccc(Cl)cc1.[I-] [Binhib 2, 3,5,7-triaza-1-azoniatricyclo[3.3.1.13,7]decane, 1-[2-(4-chlorophenyl)-2-oxoethyl]-iodide] | without affecting
